For assay [1], the target named is T1, cloned human M4 receptor (Homo sapiens, UniProt P08173).
T1 construct: purchased Perkin-Elmer RBHM4M; host or cells: CHO cell membranes
T1 sequence (P08173 1-479): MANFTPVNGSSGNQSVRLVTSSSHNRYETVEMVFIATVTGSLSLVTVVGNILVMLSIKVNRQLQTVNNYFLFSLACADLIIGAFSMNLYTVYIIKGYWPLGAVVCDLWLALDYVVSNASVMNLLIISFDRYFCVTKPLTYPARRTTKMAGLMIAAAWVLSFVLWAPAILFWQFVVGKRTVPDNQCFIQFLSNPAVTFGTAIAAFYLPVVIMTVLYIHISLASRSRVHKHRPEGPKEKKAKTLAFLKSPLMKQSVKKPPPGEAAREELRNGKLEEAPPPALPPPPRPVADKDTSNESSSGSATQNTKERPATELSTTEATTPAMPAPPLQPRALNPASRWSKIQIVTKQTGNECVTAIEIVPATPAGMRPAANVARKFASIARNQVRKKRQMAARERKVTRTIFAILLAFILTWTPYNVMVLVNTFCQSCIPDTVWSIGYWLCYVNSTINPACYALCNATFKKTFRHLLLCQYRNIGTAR
The assay can be described thus: hM4 receptor GTPγS binding. It counts as biochemical. Conditions: CHO membranes expressing hM4, [35S]GTPγS binding. How it is done: Membranes produced from Chinese hamster ovary cells (CHO) expressing the cloned human M4 receptor (human Muscarinic receptor subtype 4, gene bank access NM_000741), are obtained from Perkin-Elmer (RBHM4M). The membranes are thawed at 37° C., passed 3 times through a 23-gauge blunt-end needle, diluted in the GTPγS binding buffer (50 mM Hepes, 20 mM NaOH, 100 mM NaCl, 1 mM EDTA, 5 mM MgCl2, pH 7.4, 100 μM DTT). The EC50, IC50 and Emax of the compounds of the invention are evaluated from 10-point dose-response curves (three fold concentration range) done in 60 μl in 384-well non-specific binding surface plate (Corning). Ten microliters from the dose-response curves plate (5× concentration) are transferred to another 384 well plate containing 25 μl of the following: 10 μg of hM4 membranes, 500 μg of Flashblue beads (Perkin-Elmer) and GDP 40 μM. An additional 15 μl containing 3.3× (60,000 dpm) of GTPγ^35S (0.4 nM final) are added to the wells resulting in a total well volume of 50 μl. Basal and maximal stimulated [^35S]GTPγS binding are determined in absence and presence of 30 μM final of acetylcholine agonist. The membranes/beads mix are pre-incubated for 15 minutes at room temperature with 40 μM GDP prior to distribution in plates (20 μM final). The reversal of acetylcholine-induced stimulation (10 μM final) of [^35S]GTPγS binding is used to assay the antagonist properties (IC50) of the compounds. The plates are incubated for 60 minutes at room temperature then centrifuged at 400 rpm for 5 minutes. The radioactivity (cpm) is counted in a Trilux (Perkin-Elmer).
(§1) Values of EC50, IC50 and Emax are obtained using sigmoidal fits of a non-linear curve-fitting program (XLfit version 4.2.2 Excel add-in version 4.2.2 build 18 math 1Q version 2.1.2 build 18) of percent stimulated [^35S]GTPγS binding vs. log(molar ligand). All pEC50 and pIC50 values are reported as arithmetic means±standard error of mean of ‘n’ independent experiments.

The target of assay [2] is T2, cloned human M2 receptor (Homo sapiens, UniProt P08172).
T2 construct: purchased Perkin-Elmer RBHM2M; host or cells: CHO cell membranes
T2 sequence (P08172 1-466): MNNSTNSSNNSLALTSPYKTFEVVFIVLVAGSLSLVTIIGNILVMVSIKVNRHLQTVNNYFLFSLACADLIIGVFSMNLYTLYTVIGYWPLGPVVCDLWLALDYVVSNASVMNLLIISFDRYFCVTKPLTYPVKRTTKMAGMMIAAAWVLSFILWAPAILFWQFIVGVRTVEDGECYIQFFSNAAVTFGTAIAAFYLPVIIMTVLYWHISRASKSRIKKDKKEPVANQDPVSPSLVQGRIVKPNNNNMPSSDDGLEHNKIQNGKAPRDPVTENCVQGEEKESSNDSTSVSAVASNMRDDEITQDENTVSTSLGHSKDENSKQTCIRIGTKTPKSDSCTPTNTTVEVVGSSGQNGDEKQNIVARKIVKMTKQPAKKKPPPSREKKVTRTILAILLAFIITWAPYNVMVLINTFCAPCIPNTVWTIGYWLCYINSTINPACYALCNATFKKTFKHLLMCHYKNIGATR
The assay can be described thus: hM2 receptor GTPγS binding. It counts as biochemical. As to conditions: CHO membranes expressing hM2, [35S]GTPγS binding. How it is done:
Membranes produced from Chinese hamster ovary cells (CHO) expressing the cloned human M2 receptor (human Muscarinic receptor subtype 2, gene bank access NM_000739), are obtained from Perkin-Elmer (RBHM2M). The membranes are thawed at 37° C., passed 3 times through a 23-gauge blunt-end needle, diluted in the GTPγS binding buffer (50 mM Hepes, 20 mM NaOH, 100 mM NaCl, 1 mM EDTA, 5 mM MgCl2, pH 7.4, 100 μM DTT). The EC50, IC50 and Emax of the compounds of the invention are evaluated from 10-point dose-response curves (three fold concentration range) done in 60 μl in 384-well non-specific binding surface plate (Corning). Ten microliters from the dose-response curves plate (5× concentration) are transferred to another 384 well plate containing 25 μl of the following: 5 μg of hM2 membranes, 500 μg of Flashblue beads (Perkin-Elmer) and GDP 25 μM. An additional 15 μl containing 3.3× (60,000 dpm) of GTPγ^35S (0.4 nM final) are added to the wells resulting in a total well volume of 50 μl. Basal and maximal stimulated [^35S]GTPγS binding are determined in absence and presence of 30 μM final of acetylcholine agonist. The membranes/beads mix are pre-incubated for 15 minutes at room temperature with 25 μM GDP prior to distribution in plates (12.5 μM final). The reversal of acetylcholine-induced stimulation (2 μM final) of [^35S]GTPγS binding is used to assay the antagonist properties (IC50) of the compounds. The plates are incubated for 60 minutes at room temperature then centrifuged at 400 rpm for 5 minutes. The radioactivity (cpm) is counted in a Trilux (Perkin-Elmer).
as §1

Consider `CC(C)OC(=O)N1CCC(C)(N2CCC(N3C(=O)C[C@H]4CCCC[C@@H]43)CC2)CC1` [Example 14, Propan-2-yl 4-[4-[(3aR,7aS)-2-oxo-3a,4,5,6,7,7a-hexahydro-3H-indol-1-yl]-1-piperidyl]-4-methyl-piperidine-1-carboxylate], for which the EC50 in assay [1] was > 30 µM; in assay [2], > 30000 nM.
Take `CC1(N2CCC(N3C(=O)C[C@H]4CCCC[C@@H]43)CC2)CCN(C(=O)C2CC2)CC1` [Example 15, (3aR,7aS)-1-[1-[1-(cyclopropanecarbonyl)-4-methyl-4-piperidyl]-4-piperidyl]-3a,4,5,6,7,7a-hexahydro-3H-indol-2-one]: the EC50 is > 30 µM in assay [1] and > 15000 nM in assay [2].
As for `CC#CCOC(=O)N1CCC(C)(N2CCC(N3C(=O)N[C@H]4CCCC[C@@H]43)CC2)CC1` [Example 16, But-2-ynyl 4-[4-[(3aS,7aS)-2-oxo-3a,4,5,6,7,7a-hexahydro-3H-benzimidazol-1-yl]-1-piperidyl]-4-methyl-piperidine-1-carboxylate], the results for the EC50 in assay [1] and in assay [2] were > 90 µM and 121 nM, respectively.
Regarding `C#CCOC(=O)N1CCC(C)(N2CCC(N3C(=O)N[C@H]4CCCC[C@@H]43)CC2)CC1` [Example 17, prop-2-ynyl 4-[4-[(3aS,7aS)-2-oxo-3a,4,5,6,7,7a-hexahydro-3H-benzimidazol-1-yl]-1-piperidyl]-4-methyl-piperidine-1-carboxylate], the figures for the EC50 in assay [1] and in assay [2] were > 30 µM and 48 nM, respectively.
For `CCC(=O)N1CCC(C)(N2CCC(N3C(=O)N[C@H]4CCCC[C@@H]43)CC2)CC1` [Example 18, (3aS,7aS)-3-[1-(4-methyl-1-propanoyl-4-piperidyl)-4-piperidyl]-3a,4,5,6,7,7a-hexahydro-1H-benzimidazol-2-one], in that order: > 30 µM and 2340 nM.

Source of the values: patent publication US8119661B2, “Piperidine derivatives and their use as muscarinic receptor modulators” (AstraZeneca AB, priority 2007, dated 2012).
